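Values below derive from 48-hour exposures of cells grown in 96-well plates, with endpoints linearly interpolated between the two concentrations bracketing the appropriate inhibition level. GI50 marks 50% less growth. TGI marks complete inhibition of growth.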
Key:
Assay in all cases: growth of human tumour cells (NCI), 48 h
TK-10 renal = test system: TK-10 renal
PC-3 prostate = test system: PC-3 prostate
SK-MEL-28 melanoma = test system: SK-MEL-28 melanoma
SNB-19 CNS = test system: SNB-19 CNS
HOP-92 NSCLC = test system: HOP-92 NSCLC
SN12C renal = test system: SN12C renal
HOP-62 NSCLC = test system: HOP-62 NSCLC
HCT-15 colon = test system: HCT-15 colon
SK-MEL-2 melanoma = test system: SK-MEL-2 melanoma
ACHN renal = test system: ACHN renal

Row | Compound | TGI (TK-10 renal) | TGI (PC-3 prostate) | TGI (SK-MEL-28 melanoma) | TGI (SNB-19 CNS) | TGI (HOP-92 NSCLC) | TGI (SN12C renal) | TGI (HOP-62 NSCLC) | TGI (HCT-15 colon) | TGI (SK-MEL-2 melanoma) | TGI (ACHN renal) | GI50 (TK-10 renal) | GI50 (PC-3 prostate) | GI50 (SK-MEL-28 melanoma) | GI50 (SNB-19 CNS) | GI50 (HOP-92 NSCLC) | GI50 (SN12C renal) | GI50 (HOP-62 NSCLC) | GI50 (HCT-15 colon) | GI50 (SK-MEL-2 melanoma) | GI50 (ACHN renal)
1 | COc1cc2c(cc1OC)C(Cl)C(c1ccc(Br)cc1)=C2Cl (stereo not given) | 23.6 µM | 21.6 µM | 30.7 µM | 32 µM | 36.2 µM | 25.4 µM | 35.4 µM | 23.6 µM | 22.5 µM | 21.3 µM |  |  |  |  |  |  |  |  |  | 
2 | COc1c(C(N)=O)cc(-c2ccc(Cl)cc2)cc1-c1ccc(S(N)(=O)=O)cc1 | 18.8 µM | 24.8 µM | > 25 µM | > 25 µM | 10.4 µM | > 25 µM | > 25 µM | > 25 µM | 21 µM | > 25 µM | 6.65 µM | 7.08 µM | 16.9 µM | 14 µM | 3.26 µM | 10.5 µM | 18.8 µM | 9.66 µM | 7.89 µM | 10.1 µM
3 | Cc1cc(OCc2ccc(C(F)(F)F)cc2)c2c(c1)C(=O)C=C(NCCN1CCCC1)C2=O | 22.2 µM | 19.5 µM | 3.36 µM | 6.2 µM | 7.38 µM | 28.3 µM | 13.2 µM | 4.82 µM | 4.08 µM | 4.08 µM | 6.85 µM | 5.36 µM | 1.69 µM | 2.46 µM | 1.96 µM | 9.86 µM | 3.44 µM | 1.95 µM | 1.99 µM | 1.97 µM
4 | CC(=O)OC1CC2(C)C(=CC1C1SCCS1)CCC1C2CCC2(C)C(OC(C)=O)CCC12 (stereo not given) | > 100 µM | > 100 µM | > 100 µM | > 100 µM | > 100 µM | > 100 µM | > 100 µM | > 100 µM | > 100 µM | > 100 µM |  |  |  |  |  |  |  |  |  | 
5 | CC1=C(CCC(C)CO)O[C@H]2C[C@H]3[C@@H]4CC[C@H]5C[C@@H](O)CC[C@]5(C)[C@H]4CC(=O)[C@]3(C)[C@@H]12 (stereo not given in full) | 46.7 µM | 21.2 µM | > 78.5 µM | 55.5 µM | 67.3 µM | 53.2 µM | 38.3 µM | 57.6 µM | 30.6 µM | > 69.7 µM |  |  |  |  |  |  |  |  |  | 
6 | CC1Cc2c(Cl)ncnc2N(C)c2ccccc21 (stereo not given) | 8.87 µM | 66.9 µM | 26.5 µM | > 100 µM | 7.17 µM | 15.5 µM | 14.7 µM | 11.3 µM | 6.1 µM | > 100 µM | 2.57 µM | 3.9 µM | 1.82 µM | 4.72 µM | 2.34 µM | 3.4 µM | 3.08 µM | 3 µM | 2.61 µM | 3.79 µM
7 | Nc1nc(-c2ccc3c(c2)/C(=C\c2cc(Br)c(O)c(Br)c2)C(=O)N3)cs1 | > 25 µM | > 25 µM | > 25 µM | > 25 µM | > 25 µM | > 25 µM | > 25 µM | > 25 µM | > 17.6 µM | > 25 µM | > 25 µM | 13.6 µM | 7.99 µM | > 25 µM | 9.19 µM | > 25 µM | > 17 µM | > 20.2 µM | 6.96 µM | > 23.9 µM

From PubChem BioAssay (NCI)
